{"source": "patent US20050209157A1", "about": "“Short bioactive peptides and methods for their use” (priority 2001, published 2005)", "note": "No end group written: not given here."}
{"test_system": "not listed separately", "experiment": "in vitro", "conditions": "human, WI38 normal lung fibroblast cells, Peptide toxicity WI-38 LD/50, human fibroblast cells", "units": {"CC50 at 24 h": "µg/mL"}}
{"substance": "FAKALAKLAKKLL-NH2 [compound 58]", "CC50 at 24 h": 25}
{"substance": "FAVGLRAIKRALKKLRRGVRKVAKDL-NH2 [compound 119]", "CC50 at 24 h": 500}
{"substance": "LPKWKVFKKIEKVGRNIRNGIVKAGPAIAVLGEAKALG-NH2 [compound 150]", "CC50 at 24 h": 320}
{"substance": "FAKLLAKLAKKLL-NH2 [compound 25]", "CC50 at 24 h": 5}
{"substance": "FAKLLAKALKKAL-NH2 [compound 66]", "CC50 at 24 h": 210}
{"substance": "MPKEKVFLKIEKMGRNIRN-NH2 [compound 71]", "CC50 at 24 h": "> 1000"}
{"substance": "VAKLLAKLAKKLL-NH2 [compound 30]", "CC50 at 24 h": 60}
{"test_system": "human red blood cells (RBC)", "experiment": "in vitro", "format": "cell-based", "conditions": "human red blood cells"}
{"substance": "FAKALAKLAKKLL-NH2 [compound 58]", "Peptide toxicity RBC LD/50": 300}
{"substance": "FAVGLRAIKRALKKLRRGVRKVAKDL-NH2 [compound 119]", "Peptide toxicity RBC LD/50": 850}
{"substance": "LPKWKVFKKIEKVGRNIRNGIVKAGPAIAVLGEAKALG-NH2 [compound 150]", "Peptide toxicity RBC LD/50": ">1000"}
{"substance": "FAKLLAKLAKKLL-NH2 [compound 25]", "Peptide toxicity RBC LD/50": 20}
{"substance": "FAKLLAKALKKAL-NH2 [compound 66]", "Peptide toxicity RBC LD/50": 500}
{"substance": "MPKEKVFLKIEKMGRNIRN-NH2 [compound 71]", "Peptide toxicity RBC LD/50": ">1000"}
{"substance": "FAKLLALALKKAL-NH2 [compound 165]", "Peptide toxicity RBC LD/50": 350}
{"substance": "VAKLLAKLAKKLL-NH2 [compound 30]", "Peptide toxicity RBC LD/50": 130}
{"test_system": "human leukocyte (WBC) cells", "experiment": "Stimulation and proliferation of leukocytes, Alamar Blue", "format": "cell-based", "conditions": "0.1 ug/ml, 48 hours", "description": "(§1) In vitro viability of human leukocyte cells in the presence of different peptides at different concentrations was determined by an Alamar Blue protocol. Alamar Blue (Promega, Madison, Wis.) is an indicator dye, formulated to measure quantitatively the proliferation and cytotoxicity of the cells. The dye consists of an oxidation-reduction (redox) indicator that yields a calorimetric change and a fluorescent signal in response to cellular metabolic activity.\n(§2) Assay protocol: Blood from a human was drawn and centrifuged at 1500 rpm for 15 minutes at room temperature. The buffy coat cells at the plasma-red blood cell interface were aspirated. Buffy coat cells (mainly lymphocyte cells) were then transferred into 15 ml centrifuge tubes containing 5 ml of RPMI-1640 medium+10% Fetal Bovine Serum (Gibco, Grand Island, N.Y.). Additional medium was added to the tubes to bring the volume up to 10 ml. The buffy coat suspension was then carefully layered on 5 ml of Histopaque (Sigma Chemical Co., St. Louis, Mo.) and centrifuged at 1500 rpm for 30 minutes at room temperature. The interface which is mostly PBMCs (peripheral mononuclear cells) was aspirated and transferred to a 15 ml conical centrifuge tube and, resuspended in 2 ml cold RPMI-1640 and brought up to 15 ml with cold RPMI-1640 medium. Cells were centrifuged at 1500 rpm for 10 minutes. The supernatant was then aspirated and discarded. The cell pellet was re-suspended in 1 ml of cold RPMI 1640 and brought up to 15 ml with RPMI medium. This step was repeated twice, except that in the last step, the cells were resuspended with 1 ml of cold RPMI-1640 medium and cell counts were performed with a hemocytometer according to the Sigma cell culture catalogue.\n(§3) Pokewood mitogen was used as a control along with positive and negative controls. Negative control cells were killed with 70% methanol. Positive (+) control cells were incubated in RPMI medium (untreated). […] of AlamarBlue was added to the cells, and readings were taken after 24 hours, 48 hours, 72 hours, and 96 hours using a fluorimeter (excitation 544/transmission 590 nm).\n(§4) Calculations were performed using the following formula. The peptide treated sample and positive control were adjusted for negative control. [formula]\n(§5) Using the protocol described immediately above, about 100-150 peptides were screened for their stimulatory and/or inhibitory actions upon the growth of human leukocyte (“WBC”) cells as compared to the growth of untreated positive control cells.\n(§6) The Alamar Blue stain used in the protocol permeates both cell and nuclear membranes, and is metabolized in the mitochondria to cause the change in color. The resulting fluorometric response is therefore a result of total mitochondrial activity caused by cell stimulation and/or mitosis (cell proliferation).", "units": {"Peptide treated cell activity Percent stimulation relative to control": "%"}}
{"substance": "FAKALAKLAKKLL-NH2 [compound 58]", "Peptide treated cell activity Percent stimulation relative to control": 112}
{"substance": "FAVGLRAIKRALKKLRRGVRKVAKDL-NH2 [compound 119]", "Peptide treated cell activity Percent stimulation relative to control": 88}
{"substance": "LPKWKVFKKIEKVGRNIRNGIVKAGPAIAVLGEAKALG-NH2 [compound 150]", "Peptide treated cell activity Percent stimulation relative to control": 97}
{"substance": "FAKLLAKLAKKLL-NH2 [compound 25]", "Peptide treated cell activity Percent stimulation relative to control": 78}
{"substance": "FAKLLAKALKKAL-NH2 [compound 66]", "Peptide treated cell activity Percent stimulation relative to control": 100}
{"substance": "MPKEKVFLKIEKMGRNIRN-NH2 [compound 71]", "Peptide treated cell activity Percent stimulation relative to control": 101}
{"substance": "FAKLLALALKKAL-NH2 [compound 165]", "Peptide treated cell activity Percent stimulation relative to control": 107}
{"substance": "VAKLLAKLAKKLL-NH2 [compound 30]", "Peptide treated cell activity Percent stimulation relative to control": 74}
{"test_system": "human leukocyte (WBC) cells", "experiment": "Stimulation and proliferation of leukocytes, Alamar Blue", "format": "cell-based", "conditions": "1 ug/ml, 48 hours", "description": "as §1, §2, §3, §4, §5, §6", "units": {"Peptide treated cell activity Percent stimulation relative to control": "%"}}
{"substance": "FAKALAKLAKKLL-NH2 [compound 58]", "Peptide treated cell activity Percent stimulation relative to control": 112}
{"substance": "FAVGLRAIKRALKKLRRGVRKVAKDL-NH2 [compound 119]", "Peptide treated cell activity Percent stimulation relative to control": 108}
{"substance": "LPKWKVFKKIEKVGRNIRNGIVKAGPAIAVLGEAKALG-NH2 [compound 150]", "Peptide treated cell activity Percent stimulation relative to control": 101}
{"substance": "FAKLLAKLAKKLL-NH2 [compound 25]", "Peptide treated cell activity Percent stimulation relative to control": 82}
{"substance": "FAKLLAKALKKAL-NH2 [compound 66]", "Peptide treated cell activity Percent stimulation relative to control": 102}
{"substance": "MPKEKVFLKIEKMGRNIRN-NH2 [compound 71]", "Peptide treated cell activity Percent stimulation relative to control": 100}
{"substance": "FAKLLALALKKAL-NH2 [compound 165]", "Peptide treated cell activity Percent stimulation relative to control": 109}
{"substance": "VAKLLAKLAKKLL-NH2 [compound 30]", "Peptide treated cell activity Percent stimulation relative to control": 68}
{"test_system": "human leukocyte (WBC) cells", "experiment": "Stimulation and proliferation of leukocytes, Alamar Blue", "format": "cell-based", "conditions": "10 ug/ml, 48 hours", "description": "as §1, §2, §3, §4, §5, §6", "units": {"Peptide treated cell activity Percent stimulation relative to control": "%"}}
{"substance": "FAKALAKLAKKLL-NH2 [compound 58]", "Peptide treated cell activity Percent stimulation relative to control": 98}
{"substance": "FAVGLRAIKRALKKLRRGVRKVAKDL-NH2 [compound 119]", "Peptide treated cell activity Percent stimulation relative to control": 54}
{"substance": "LPKWKVFKKIEKVGRNIRNGIVKAGPAIAVLGEAKALG-NH2 [compound 150]", "Peptide treated cell activity Percent stimulation relative to control": 94}
{"substance": "FAKLLAKLAKKLL-NH2 [compound 25]", "Peptide treated cell activity Percent stimulation relative to control": 71}
{"substance": "FAKLLAKALKKAL-NH2 [compound 66]", "Peptide treated cell activity Percent stimulation relative to control": 97}
{"substance": "MPKEKVFLKIEKMGRNIRN-NH2 [compound 71]", "Peptide treated cell activity Percent stimulation relative to control": 108}
{"substance": "FAKLLALALKKAL-NH2 [compound 165]", "Peptide treated cell activity Percent stimulation relative to control": 106}
{"substance": "VAKLLAKLAKKLL-NH2 [compound 30]", "Peptide treated cell activity Percent stimulation relative to control": 62}
{"test_system": "human leukocyte (WBC) cells", "experiment": "Stimulation and proliferation of leukocytes, Alamar Blue", "format": "cell-based", "conditions": "100 ug/ml, 48 hours", "description": "as §1, §2, §3, §4, §5, §6", "units": {"Peptide treated cell activity Percent stimulation relative to control": "%"}}
{"substance": "FAKALAKLAKKLL-NH2 [compound 58]", "Peptide treated cell activity Percent stimulation relative to control": 35}
{"substance": "FAVGLRAIKRALKKLRRGVRKVAKDL-NH2 [compound 119]", "Peptide treated cell activity Percent stimulation relative to control": 117}
{"substance": "LPKWKVFKKIEKVGRNIRNGIVKAGPAIAVLGEAKALG-NH2 [compound 150]", "Peptide treated cell activity Percent stimulation relative to control": 109}
{"substance": "FAKLLAKLAKKLL-NH2 [compound 25]", "Peptide treated cell activity Percent stimulation relative to control": 14}
{"substance": "FAKLLAKALKKAL-NH2 [compound 66]", "Peptide treated cell activity Percent stimulation relative to control": 37}
{"substance": "MPKEKVFLKIEKMGRNIRN-NH2 [compound 71]", "Peptide treated cell activity Percent stimulation relative to control": 109}
{"substance": "FAKLLALALKKAL-NH2 [compound 165]", "Peptide treated cell activity Percent stimulation relative to control": 27}
{"substance": "VAKLLAKLAKKLL-NH2 [compound 30]", "Peptide treated cell activity Percent stimulation relative to control": 13}
{"test_system": "human leukocyte (WBC) cells", "experiment": "Stimulation and proliferation of leukocytes, Alamar Blue", "format": "cell-based", "conditions": "500 ug/ml, 48 hours", "description": "as §1, §2, §3, §4, §5, §6", "units": {"Peptide treated cell activity Percent stimulation relative to control": "%"}}
{"substance": "FAKALAKLAKKLL-NH2 [compound 58]", "Peptide treated cell activity Percent stimulation relative to control": 26}
{"substance": "FAVGLRAIKRALKKLRRGVRKVAKDL-NH2 [compound 119]", "Peptide treated cell activity Percent stimulation relative to control": 89}
{"substance": "LPKWKVFKKIEKVGRNIRNGIVKAGPAIAVLGEAKALG-NH2 [compound 150]", "Peptide treated cell activity Percent stimulation relative to control": 112}
{"substance": "FAKLLAKLAKKLL-NH2 [compound 25]", "Peptide treated cell activity Percent stimulation relative to control": 12}
{"substance": "FAKLLAKALKKAL-NH2 [compound 66]", "Peptide treated cell activity Percent stimulation relative to control": 17}
{"substance": "MPKEKVFLKIEKMGRNIRN-NH2 [compound 71]", "Peptide treated cell activity Percent stimulation relative to control": 110}
{"substance": "FAKLLALALKKAL-NH2 [compound 165]", "Peptide treated cell activity Percent stimulation relative to control": 22}
{"substance": "VAKLLAKLAKKLL-NH2 [compound 30]", "Peptide treated cell activity Percent stimulation relative to control": 13}
